From patent US9992989B2, “Dual action lethal containers, systems, methods and compositions for killing adult mosquitos and larvae” (University of Florida Research Foundation, Inc., priority 2012, dated 2018)

Columns and labels:
Aedes aegypti = experiment: Adult mosquito mortality on aged insecticidal coatings on wood panels (Protocol A); type: in vivo; settings: 24 h exposure, independent of aging for approximately 2 years (FIG. 7)
Procedure: (§1) The following protocols A, B, C and D list the flowchart methodologies for experiments that were conducted for evaluating the different coatings used. • A. Flowchart of methodology in the evaluation of adulticide coating includes the steps of: • i. Obtain preferred coating basis; • ii. Add adulticide (pyrethroids) and, if desired, an additive (CARBONXIDE™) to formulate different formulations of insecticides; • iii. Add coating on wood panels; • iv. Age wood panels in simulated environmental conditions; • v. Prepare housing for adult mosquitoes • a Place a 4-oz plastic cup upside down on coated wood panels; • vi. Place adult mosquitoes in the housing cup to expose them to insecticidal coating; • vii. Measure mosquito mortality in 1-hour, 2-hour, and 24-hour after exposure; • viii. Collect data and perform statistical analysis to determine effectiveness of adulticide coating. • B. Flowchart of methodology in the evaluation of larvicide coating can include: • i. Obtain preferred coating basis; • ii. Add larvicide (insect growth regulators) and, if desired, an additive (CARBONXIDE™); • iii. Coat filter paper and let air dry for 1-3 days; • iv. Prepare housing for larval mosquitoes; • a. Place coated filter paper in 4-oz glass jars; • b. Fill jars with unchlorinated or distilled water; • v. Place larval mosquitoes on the jars; • vi. […]

Aedes albopictus = experiment: as above; type: in vivo; settings: 24 h exposure, independent of aging for approximately 2 years (FIG. 8)
Procedure: as §1

mosquito larvae = experiment: Dual-action ovitrap test, larval survival (Protocol D); type: in vivo; settings: for Mosquito larval survival / mortality versus hours of exposure: larvae in water of ovitrap treated with coating (FIGS. 9-11)
Procedure: The following protocols A, B, C and D list the flowchart methodologies for experiments that were conducted for evaluating the different coatings used. • A. Flowchart of methodology in the evaluation of adulticide coating includes the steps of: • i. Obtain preferred coating basis; • ii. Add adulticide (pyrethroids) and, if desired, an additive (CARBONXIDE™) to formulate different formulations of insecticides; • iii. Add coating on wood panels; • iv. Age wood panels in simulated environmental conditions; • v. Prepare housing for adult mosquitoes • a Place a 4-oz plastic cup upside down on coated wood panels; • vi. Place adult mosquitoes in the housing cup to expose them to insecticidal coating; • vii. Measure mosquito mortality in 1-hour, 2-hour, and 24-hour after exposure; • viii. Collect data and perform statistical analysis to determine effectiveness of adulticide coating. • B. Flowchart of methodology in the evaluation of larvicide coating can include: • i. Obtain preferred coating basis; • ii. Add larvicide (insect growth regulators) and, if desired, an additive (CARBONXIDE™); • iii. Coat filter paper and let air dry for 1-3 days; • iv. Prepare housing for larval mosquitoes; • a. Place coated filter paper in 4-oz glass jars; • b. Fill jars with unchlorinated or distilled water; • v. Place larval mosquitoes on the jars; • vi. Measure mosquito larva mortality in 12-hour intervals until all are dead or emerged as adults; • vii. Collect data and perform statistical analysis to determine effectiveness of adulticide coating. • C. Flowchart of methodology in evaluation of adulticide coating as applied in lethal ovitrap can include: • i. Obtain preferred coating basis; • ii. Add adulticide (pyrethroids) and, if desired an additive (CARBONXIDE™); • iii. Coat filter paper and let air dry for 1-3 days; • iv. Prepare oviposition cup; • a. Place coated filter paper in a 4-oz plastic cup; • b. Fill cup halfway with unchlorinated or distilled water; • v. Prepare housing for gravid (“pregnant”) females; • a. Cut a 1-inch hole on the side of a 3-gallon bucket; • b. Cover hole with ½ in foam; • vi. […]

[1] = tested on: gravid females (adult mosquitoes); experiment: Dual-action ovitrap test, adult survival (Protocol D); type: in vivo, mosquito; settings: gravid females exposed to ovitrap treated with coating (FIGS. 9-11)
Procedure: as §1

Compound | Percent of Adult Mosquito Mortality (Aedes aegypti) | Percent of Adult Mosquito Mortality (Aedes albopictus) | Mosquito larval survival / mortality versus hours of exposure (mosquito larvae) | Adult survival / mortality versus hours of exposure [1] | Pupal development / adult emergence from larvae (mosquito larvae; larvae in ovitrap treated with coating (FIG. 11))
CC1(C)C(C=C(Cl)Cl)C1C(=O)OCc1cccc(Oc2ccccc2)c1 (stereo not shown) [permethrin] | 100% | 100% | killed rapidly | Adult mortality does not occur until after the females have started laying eggs | –
CC(COc1ccc(Oc2ccccc2)cc1)Oc1ccccn1 (stereo not shown) [pyriproxyfen] | – | – | killed rapidly when they start molting into the pupal stage | only normal mortality | adults never emerge
